We go through eleven compounds from patent US11446304B2, “CDC-7-inhibitor compounds and use thereof for the treatment of neurological conditions” (CONSEJO SUPERIOR DE INVESTIGACIONES CIENTIFICAS (CSIC), priority 2017, dated 2022).

Molecules are shown by their SMILES.

One data set concerns the target T1, human recombinant CDC7 (Homo sapiens, UniProt O00311).
T1 construct: purchased Promega V5089
Briefly: CDC7 inhibition measurement (ADP-Glo technology). The data set is classed as biochemical. The following applies: ATP 10 μM, 60 min at room temperature; read-out: CDC7 ADP-Glo ™ CI50. As for the experimental part:
The method used is a non-radioactive enzyme inhibition assay using human recombinant CDC7. It is based on luminometric quantification of inhibition using the ADP-Glo™ Kinase Kit. In this test the luminescent signal correlates positively with the amount of adenosine diphosphate (ADP) and the activity of the kinase. […]
CDC7 enzyme inhibition studies were conducted using the promega kit: ADP-Glo™ Kinase Assay+CDC7/DBF4 Kinase Enzyme System (Catalogue No. V5089). ATP and other reagents were purchased in Sigma-Aldrich (St. Louis, Mo.). The trials were performed in a buffer solution using 96-well plates. The compound to be tested (5 μL, 40 μM dissolved in DMSO 4%) was added to each well followed by the enzyme (5 μL, 25 ng/well), ATP (5 μL, final concentration in well 10 μM) and PDKtidE (5 μL, 4 μg/well). It was then incubated for 60 minutes at room temperature and the reagent ADP-Glo™ (20 μL) was added and incubated again for 40 min at room temperature. After incubation, the kinase detection agent (40 μL) was added and incubated for 30 min at room temperature. Finally, the luminescence (integration time of 0.5-1 sec) was measured using a POLARstar Optima multimode reader polarimeter. Inhibition activities were calculated as a function of maximum activity, measured in the absence of inhibitor.
Background: ADP-Glo first removes unused ATP, then detects ADP through luciferase.

Data set [1] has as its target human recombinant CDC7/DBF4 (Homo sapiens, UniProt O00311). In words: CDC7 inhibition measurement (LanthaScreen Eu kinase binding, FRET). Conditions: CDC7/DBF4 0.5 nM, 60 min at room temperature; read-out: CDC7 Lantha ™ CI50. The source says:
The LanthaScreen Eu kinases inhibition assay uses an Alexa marker Fluor™ that binds to a kinase and is detected by the addition of an Eu-marked antibody. The binding of the marker and the antibody to the kinase results in a high degree of FRET, while the displacement of the marker by an inhibitor results in a loss of FRET. Unlike many other kinase activity tests, this is a simple mix and read test, with no developmental stages. This test method has been developed by Life Technologies and identifies competitive ATP kinase inhibitors, making them suitable for the detection of any compound that binds to the ATP site.
The compounds are evaluated at 1% DMSO (final) in the well. A mixture of human recombinant CDC7/DBF4 (0.5 nM), Eu-antiGST antibody (2 nM) and AlexaFluor marker (1 nM) has been used in a buffer of 50 mM HEPES pH 7.5, 0.01% BRIJ-35, 10 mM MgCl2, 1 mM EGTA in white plates of […], low volume, coded (Greiner cat. #784207), 160 nL (100×100% DMSO compound), 3.84 μL (buffer with CDC7/DBF4), 8.0 μL (antibody), 4.0 μL (marker) are added. Agitate 30 s and incubate at room temperature for 60 min. Then measure the fluorescence in the plate reader and analyze the data (Table 1).

A short description of data set [2]: PAMPA blood-brain barrier permeation (porcine brain lipid). The data set is classed as in vitro ADME. The following applies: for Papp at 2.5 h: PAMPA-BHE, PBS pH 7.4/EtOH 70:30, 2 h 30 min at 25° C., mean ± SD, read-out: Pe; for PAMPA prediction of central nervous system (CNS) penetration: from Pe in PAMPA-BHE. The source says: An essential requirement for drugs for the treatment of neurodegenerative diseases is the ability to cross the blood-brain barrier (BBB), as otherwise they could not act on the target of interest. Therefore, for compounds that are not permeable or located in the area of uncertainty, it may be necessary to properly convey a pharmaceutical formulation through methods known to an expert in the field, such as encapsulation. This capability can be predicted in vitro using a method known by the acronym PAMPA (Parallel Artificial Membrane Permeability Assay) described by Di et al (Di, L.; Kerns, E. H.; Fan, K.; McConnell, O. J.; Carter, G. T. Eur. J. Med. Chem. 2003, 38 (3), 223-232) and which has subsequently been fine-tuned in our research group. This method allows predicting the effective permeability through artificial membranes by means of a passive diffusion process.
First of all, it is necessary to validate the method, for which 10 commercial compounds are used whose penetration capacity in the central nervous system (CNS) is known and which are to be specified below, obtaining in this case a good linear correlation between the experimental permeability values (Pe) and those described (FIG. 1). This correlation line obtained following the pattern described in the bibliography allows establishing the limits to predict whether or not a compound can cross the blood-brain barrier. Thus, a compound is considered BBB permeable (SNC+) if it has a permeability>4.48×10^−6 cm-s^−1.
For the procedure, between 3-5 mg of caffeine, desipramine, enoxacin, hydrocortisone, ofloxacin, piroxicam and testosterone, 12 mg of promazine and 25 mg of atenolol and verapamil were taken and dissolved in EtOH (1000 μL). 100 μL of these solutions were taken and EtOH (1400 μL) and phosphate buffer (PBS) pH=7.4 (3500 μL) were added in order to achieve a final EtOH concentration of 30% v/v in solution. Finally, the dissolutions were filtered.
On the other hand, a PBS/EtOH solution (70:30) was added to each well of the acceptance plate (180 μL). The donor plate was impregnated with a porcine brain lipid solution (4 μL) dissolved in dodecane (20 mg mL^−1). After 5 min, dissolution of each compound was added to this plate (180 μL).
Of the compounds 1 to 10 evaluated, 1-2 mg were taken and dissolved in EtOH (1500 μL) and phosphate buffer (PBS) pH=7.4 (3500 μL), filtered and added to the donor plate. With these solutions, the wavelengths at which the compounds absorb are determined and the initial absorbance levels at these wavelengths are measured using a UV absorbance reader. Each sample was analyzed from two to five wavelengths, in three wells and in two independent experiments.
The donor plate was then deposited on the acceptor forming a kind of “sandwich” and incubated for 2 hours and 30 minutes at 25° C. In this way, the compounds will pass from the donor plate to the acceptor plate through the porcine brain lipid by passive diffusion. After that time, the donor plate is carefully removed and the concentration and final absorbance of both commercial and synthesized compounds is determined. The results obtained are expressed as the mean of the measurements [standard deviation (SD)] of the different experiments carried out and are shown in table 2.

The subject of data set [3] is human SH-SY5Y neuroblastoma cells. Briefly: Neuroprotective effect against ethacrynic acid, cell viability by MTT. The data set is classed as cell-based. Conditions: ethacrynic acid 20 μM for 12 hours, inhibitors at 10 μM, FIG. 2. As for the experimental part: FIG. 2. […] The data represent the mean of four different±SEM experiments (*p<0.05).
The human neuroblastoma cell line SH-SY5Y was cultured at 37° C. with 5% CO2 in DMEN medium (Dulbecco's Modified Eagle Medium) enriched with L-glutamine (2 mM), 1% non-essential amino acids, 1% Penicillin/Estreptomycin and 10% fetal bobin serum. In the semiconfluence state, the cells were treated with CDC7 inhibitors (compounds 1 and 8) at different concentrations for 1.30 hours post-addition of the causative agent of TPD-43 phosphorylation; ethacrynic acid ([…]) (Sigma). […] J Immunol Methods. 1987; 89:271-7) and levels of western blot phosphorylated TDP-43 (FIG. 2).

T1 sequence (O00311 whole entry): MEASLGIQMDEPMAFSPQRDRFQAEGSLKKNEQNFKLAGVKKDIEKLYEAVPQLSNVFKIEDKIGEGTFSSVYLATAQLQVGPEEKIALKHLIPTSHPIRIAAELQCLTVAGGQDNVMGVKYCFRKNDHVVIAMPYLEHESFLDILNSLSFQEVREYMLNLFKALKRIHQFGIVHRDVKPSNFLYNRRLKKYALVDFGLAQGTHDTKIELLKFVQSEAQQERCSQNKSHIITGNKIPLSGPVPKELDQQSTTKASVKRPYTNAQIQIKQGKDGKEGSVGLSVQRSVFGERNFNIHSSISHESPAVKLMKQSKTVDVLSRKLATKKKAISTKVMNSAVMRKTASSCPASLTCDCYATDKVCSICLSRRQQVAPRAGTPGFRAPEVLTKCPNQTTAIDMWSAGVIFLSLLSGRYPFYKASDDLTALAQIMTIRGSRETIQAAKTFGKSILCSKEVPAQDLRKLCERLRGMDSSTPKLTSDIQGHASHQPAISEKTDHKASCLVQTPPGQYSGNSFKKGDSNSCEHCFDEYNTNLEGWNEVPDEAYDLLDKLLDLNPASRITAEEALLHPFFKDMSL
T1 sequence (Q9UBU7 whole entry partner): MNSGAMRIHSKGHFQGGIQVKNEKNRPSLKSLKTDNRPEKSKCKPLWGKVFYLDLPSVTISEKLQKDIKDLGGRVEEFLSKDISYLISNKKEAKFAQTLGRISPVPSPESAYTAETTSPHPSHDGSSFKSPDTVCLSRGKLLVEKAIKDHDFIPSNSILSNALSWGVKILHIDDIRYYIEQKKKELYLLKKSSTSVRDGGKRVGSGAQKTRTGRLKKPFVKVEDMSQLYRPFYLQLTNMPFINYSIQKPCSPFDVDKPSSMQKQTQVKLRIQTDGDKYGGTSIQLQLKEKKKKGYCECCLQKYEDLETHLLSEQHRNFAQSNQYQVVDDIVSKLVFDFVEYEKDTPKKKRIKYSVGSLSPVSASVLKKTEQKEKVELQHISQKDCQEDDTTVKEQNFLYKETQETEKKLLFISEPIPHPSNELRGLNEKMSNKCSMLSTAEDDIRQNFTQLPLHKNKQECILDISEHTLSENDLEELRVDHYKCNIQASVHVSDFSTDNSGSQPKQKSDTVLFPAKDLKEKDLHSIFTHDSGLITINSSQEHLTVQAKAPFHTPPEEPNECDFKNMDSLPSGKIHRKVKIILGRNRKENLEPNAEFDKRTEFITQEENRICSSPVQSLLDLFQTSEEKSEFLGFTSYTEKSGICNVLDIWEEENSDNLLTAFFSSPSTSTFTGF
human recombinant CDC7/DBF4, sequence (O00311 whole entry): as the sequence (O00311 whole entry) above
human recombinant CDC7/DBF4, sequence (Q9UBU7 whole entry partner): as the sequence (Q9UBU7 whole entry partner) above

By melting point is commonly meant the temperature, or range, at which the solid turns liquid. Turning to `Clc1ccc(CSc2ncnc3[nH]cnc23)cc1` [Compound 5, 6-((4-chlorobenzyl)thio)-9H-purine], the melting point was 198 to 200 °C. Moreover, the IC50 at human recombinant CDC7 amounted to 8.46 ± 1.05 µM. Also, the IC50 in data set [1] was 0.184 µM. Further, in data set [2], the Papp at 2.5 h turned out to be 12.2 ± 1.2 ×10⁻⁶ cm/s and the “PAMPA prediction of central nervous system (CNS) penetration” value (from here on “PAMPA prediction”) is “SNC+ (a compound is considered BBB permeable (SNC+) if it has a permeability>4.48×10^−6 cm-s^−1)”.
Compound `Ic1cccc(CSc2ncnc3[nH]cnc23)c1` [Compound 9, 6-((3-Iodobenzyl)thio)-9H-purine] displayed a melting point of 185 to 187 °C. In addition, the IC50 at human recombinant CDC7 amounted to 3.34 ± 0.27 µM. Further, the IC50 in data set [1] was 0.086 µM. In addition, in data set [2], the Papp at 2.5 h is 13.8 ± 2.5 ×10⁻⁶ cm/s and the “PAMPA prediction” value is listed as “SNC+ (a compound is considered BBB permeable (SNC+) if it has a permeability>4.48×10^−6 cm-s^−1)”. The “neuroprotective effect (cell viability)” value in data set [3] is listed as “neuroprotective effect”.
Compound `c1ccc2c(CSc3ncnc4[nH]cnc34)cccc2c1` [Compound 2, 6-((Naphthalene-1-ylmethyl)thio)-9H-purine] gave a melting point of 221 to 222 °C. Also, the IC50 at human recombinant CDC7 is 11.2 ± 0.84 µM. Further, the IC50 in data set [1] worked out at 0.347 µM. In data set [2], the Papp at 2.5 h is 13.2 ± 2 ×10⁻⁶ cm/s and the “PAMPA prediction” value is listed as “SNC+ (a compound is considered BBB permeable (SNC+) if it has a permeability>4.48×10^−6 cm-s^−1)”.
The matching figures for `Clc1cccc(COc2ncnc3[nH]cnc23)c1` [Compound 6, 6-((3-chlorobenzyl)oxy)-9H-purine]: 197 to 199 °C, 8.98 ± 0.21 µM, 0.194 µM, 7.2 ± 0.6 ×10⁻⁶ cm/s and “SNC+ (a compound is considered BBB permeable (SNC+) if it has a permeability>4.48×10^−6 cm-s^−1)”.
Turning to `Brc1cccc(CSc2ncnc3[nH]cnc23)c1` [Compound 11, 6-((3-bromobenzyl)thio)-9H-purine], the IC50 came out at 5.29 ± 0.71 µM on human recombinant CDC7 and 0.138 µM in data set [1].
`Brc1ccccc1CSc1ncnc2[nH]cnc12` [Compound 13, 6-((2-bromobenzyl)thio)-9H-purine] registered a melting point of 209 to 211 °C. In addition, the IC50 at human recombinant CDC7 was determined as 6.24 ± 0.99 µM. Besides, the IC50 in data set [1] worked out at 0.275 µM. In data set [2], the Papp at 2.5 h amounted to 13.1 ± 0.1 ×10⁻⁶ cm/s and the “PAMPA prediction” value was “SNC+ (a compound is considered BBB permeable (SNC+) if it has a permeability>4.48×10^−6 cm-s^−1)”. Besides, the “neuroprotective effect (cell viability)” value in data set [3] was “neuroprotective effect”.
With `N#Cc1cccc(CSc2ncnc3[nH]cnc23)c1` [Compound 3], the melting point fell in the range of 189 to 191 °C. Further, the IC50 on human recombinant CDC7 worked out at 8.38 ± 0.27 µM. The IC50 in data set [1] came out at 0.335 µM. In data set [2], the Papp at 2.5 h turned out to be 2.3 ± 0.2 ×10⁻⁶ cm/s and the “PAMPA prediction” value is reported as “SNC+/−”.
As to `FC(F)(F)c1ccccc1CSc1ncnc2[nH]cnc12` [Compound 4, 6-((2-(trifluoromethyl)benzyl)thio)-9H-purine], the IC50 at human recombinant CDC7 was determined as 9.73 ± 1.03 µM. For the same compound, the IC50 in data set [1] came to 0.245 µM. Besides, in data set [2], the Papp at 2.5 h is 17.5 ± 0.9 ×10⁻⁶ cm/s and the “PAMPA prediction” value was “SNC+ (a compound is considered BBB permeable (SNC+) if it has a permeability>4.48×10^−6 cm-s^−1)”.
Regarding `FC(F)(F)c1cccc(CSc2ncnc3[nH]cnc23)c1` [Compound 7, 6-((3-(trifluoromethyl)benzyl)thio)-9H-purine], the melting point was in the range of 180 to 182 °C. In addition, on human recombinant CDC7, the IC50 was found to be 6.9 ± 0.83 µM. Also, in data set [2], the Papp at 2.5 h amounted to 16.3 ± 0.6 ×10⁻⁶ cm/s and the “PAMPA prediction” value is given as “SNC+ (a compound is considered BBB permeable (SNC+) if it has a permeability>4.48×10^−6 cm-s^−1)”.
`O=[N+]([O-])c1cccc(CSc2ncnc3[nH]cnc23)c1` [Compound 10, 6-((3-nitrobenzyl)thio)-9H-purine] yielded a melting point of 193 to 195 °C. For the same compound, the IC50 at human recombinant CDC7 is 6.54 ± 0.32 µM. In data set [2], the Papp at 2.5 h was 3.9 ± 0.4 ×10⁻⁶ cm/s and the “PAMPA prediction” value is “SNC+/−”.
`Brc1ccc(CSc2[nH]cnc3ncnc2-3)cc1` [Compound 12, 6-((4-bromobenzyl)thio)-9H-purine]: on human recombinant CDC7, the IC50 stood at 9.14 ± 0.79 µM. Further, in data set [2], the Papp at 2.5 h was 11.5 ± 0.7 ×10⁻⁶ cm/s and the “PAMPA prediction” value is recorded as “SNC+ (a compound is considered BBB permeable (SNC+) if it has a permeability>4.48×10^−6 cm-s^−1)”.
